Measured values as given in ChEMBL document CHEMBL4831534, “Design, Synthesis, and Monoamine Oxidase Inhibitory Activity of (+)-Cinchonaminone and Its Simplified Derivatives” (ACS Med Chem Lett, 2021).

Experiments:
[1] = molecular target: T1, Amine oxidase [flavin-containing] B (Homo sapiens, UniProt P27338); test: Inhibition of human recombinant MAO-B expressed in baculovirus infected BTI insect cells using luminogenic MAO substrate incubated for 1 hr by MAO-Glo assay
T1 sequence (P27338 whole entry): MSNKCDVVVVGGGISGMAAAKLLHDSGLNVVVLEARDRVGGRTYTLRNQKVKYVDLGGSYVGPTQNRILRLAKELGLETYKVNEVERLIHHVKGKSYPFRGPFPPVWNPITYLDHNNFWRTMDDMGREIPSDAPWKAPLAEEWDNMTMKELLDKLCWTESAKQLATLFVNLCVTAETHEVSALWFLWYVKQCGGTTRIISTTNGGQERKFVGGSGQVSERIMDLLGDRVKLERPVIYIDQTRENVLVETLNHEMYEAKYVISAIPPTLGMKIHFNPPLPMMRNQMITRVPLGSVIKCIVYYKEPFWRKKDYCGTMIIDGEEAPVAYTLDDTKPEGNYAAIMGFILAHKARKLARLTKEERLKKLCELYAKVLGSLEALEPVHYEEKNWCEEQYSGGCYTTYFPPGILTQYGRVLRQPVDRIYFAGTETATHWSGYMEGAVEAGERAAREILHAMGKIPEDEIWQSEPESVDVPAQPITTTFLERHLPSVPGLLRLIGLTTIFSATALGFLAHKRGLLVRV

[2] = molecular target: T2, Amine oxidase [flavin-containing] A (Homo sapiens, UniProt P21397); test: Inhibition of human recombinant MAO-A expressed in baculovirus infected BTI insect cells using luminogenic MAO substrate incubated for 1 hr by MAO-Glo assay
T2 sequence (P21397 whole entry): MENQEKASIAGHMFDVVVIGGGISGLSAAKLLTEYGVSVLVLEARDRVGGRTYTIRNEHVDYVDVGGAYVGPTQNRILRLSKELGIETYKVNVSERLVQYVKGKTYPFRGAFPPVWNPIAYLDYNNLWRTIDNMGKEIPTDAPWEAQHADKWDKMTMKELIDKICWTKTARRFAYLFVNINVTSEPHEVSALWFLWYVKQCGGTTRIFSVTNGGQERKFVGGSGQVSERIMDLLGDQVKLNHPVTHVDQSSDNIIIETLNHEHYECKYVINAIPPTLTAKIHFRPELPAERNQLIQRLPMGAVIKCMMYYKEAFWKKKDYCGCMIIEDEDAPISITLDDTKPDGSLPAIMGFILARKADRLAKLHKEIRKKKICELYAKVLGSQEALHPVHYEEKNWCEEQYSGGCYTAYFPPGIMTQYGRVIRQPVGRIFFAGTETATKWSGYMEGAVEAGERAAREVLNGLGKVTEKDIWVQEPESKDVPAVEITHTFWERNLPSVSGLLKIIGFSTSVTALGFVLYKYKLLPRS

Homo sapiens = species: Homo sapiens; test: Selectivity index, ratio of IC50 for human recombinant MOA-A expressed in baculovirus infected BTI insect cells to IC50 for MAO-B expressed in baculovirus infected BTI insect cells; conditions: time 1.0 hrs

| Structure (SMILES) | IC50 [1] | IC50 [2] | Selectivity Index (Homo sapiens) |
| --- | --- | --- | --- |
| Cc1c(C(=O)CC2CCNCC2)[nH]c2ccccc12 | 121 µM | 82.5 µM | – |
| C=C[C@@H]1CNCC[C@@H]1CC(=O)c1[nH]c2ccccc2c1CCO | 488 µM | > 1000 µM | – |
| O=C(CC1CCNCC1)c1cc2ccccc2[nH]1 | 66.6 µM | 720 µM | 11 |
| C=C[C@H]1CNCC[C@H]1CC(=O)c1[nH]c2ccccc2c1CCO | 412 µM | > 1000 µM | – |
| O=C(CC1CCNCC1)c1[nH]c2ccccc2c1CCO | > 1000 µM | > 1000 µM | – |
